Legend:
U937 cells = test: EC50 of necroptosis inhibition in U937 cells (TSZ-induced, CellTiter-Glo); format: cell-based; settings: Homo sapiens, U-937; TSZ (hTNF-α, SM-164, Z-VAD-FMK) 20 hours; 10 concentration points; read-out: EC50 intervals of necroptosis inhibition in U937 cells
Outline: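 U937 cells pretreated 15 min with compound (10-point, 1:3 series), then necroptosis induced by TSZ (hTNF-α, SM-164, Z-VAD-FMK) for 20 h at 37 °C. Viability measured as ATP by CellTiter-Glo luminescence; inhibition normalised to untreated and TSZ-only wells, EC50 from four-parameter fit.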

RIPK1 kinase = target: T1, RIPK1 kinase (Homo sapiens, UniProt Q13546); test: In vitro RIPK1 kinase activity IC50 assay (ADP-Glo); format: biochemical; settings: ATP 10 μM; MBP substrate 100 μg/mL; 8 concentration points; read-out: IC50 range of compounds for RIPK1 kinase activity
T1 construct: purchased Promega VA7593
T1 sequence (Q13546 1-671): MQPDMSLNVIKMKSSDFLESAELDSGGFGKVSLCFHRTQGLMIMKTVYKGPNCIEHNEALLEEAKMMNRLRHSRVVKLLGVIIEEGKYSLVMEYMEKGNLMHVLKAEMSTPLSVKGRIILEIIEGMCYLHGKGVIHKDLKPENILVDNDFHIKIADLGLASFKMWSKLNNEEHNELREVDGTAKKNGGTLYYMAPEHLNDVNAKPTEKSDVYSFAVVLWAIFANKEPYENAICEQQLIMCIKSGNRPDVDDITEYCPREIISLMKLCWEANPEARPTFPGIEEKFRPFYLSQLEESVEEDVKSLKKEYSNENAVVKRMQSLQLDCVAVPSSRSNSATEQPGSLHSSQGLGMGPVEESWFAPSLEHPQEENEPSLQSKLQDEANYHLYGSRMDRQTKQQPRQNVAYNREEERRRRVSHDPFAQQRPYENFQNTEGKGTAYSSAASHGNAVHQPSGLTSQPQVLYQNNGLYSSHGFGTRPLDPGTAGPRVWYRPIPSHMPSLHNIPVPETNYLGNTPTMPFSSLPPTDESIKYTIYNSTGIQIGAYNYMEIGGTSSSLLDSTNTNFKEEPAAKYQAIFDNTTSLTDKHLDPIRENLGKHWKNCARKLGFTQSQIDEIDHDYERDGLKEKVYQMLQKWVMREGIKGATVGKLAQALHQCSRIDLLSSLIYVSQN
Outline: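 Human RIPK1 preincubated 15 min at room temperature with compound (8-point 1:5 dilution series, 1% DMSO in kinase buffer D). Reaction then ran 1 h with 10 μM ATP and 100 μg/mL MBP substrate; ADP measured by ADP-Glo luminescence, IC50 from four-parameter nonlinear fit.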

Structure (SMILES) | IC50 (RIPK1 kinase) | EC50 (U937 cells)
C[C@@H](NC(=O)C(=O)N[C@H]1COc2ccc(C#CC3CN(CC#N)C3)cc2N(C)C1=O)c1ccccc1 [Example 148, N^1-((S)-7-((1-(cyanomethyl)azetidin-3-yl)ethynyl)-5-methyl-4-oxo-2,3,4,5-tetrahydrobenzo[b][1, 4]oxazepin-3-yl)-N^2-((R)-1-phenylethyl)oxalamide] | < 100 nM | < 100 nM
C[C@@H](CNC(=O)C(=O)N[C@H]1COc2ccc(C#CCN3CCOCC3)cc2N(C)C1=O)c1ccccc1 [Example 159, N^1-((S)-5-methyl-7-(3-morpholinoprop-1-yn-1-yl)-4-oxo-2,3,4,5-tetrahydrobenzo[b][1,4]oxazepin-3-yl)-N^2-((R)-2-phenylpropyl)oxalamide] | < 100 nM | < 100 nM
CN1C(=O)C(NC(=O)C(=O)NCCc2cccc(F)c2)CCc2ccc(C#CCCO)cc21 (stereo not drawn) [Example 167, N^1-(3-fluorophenethyl)-N^2-(8-(4-hydroxybut-1-yn-1-yl)-1-methyl-2-oxo-2,3,4,5-tetrahydro-1H-benzo[b]azepin-3-yl)oxalamide] | < 100 nM | < 100 nM

Further lines, with some results ahead:

IC50 (RIPK1 kinase) | Structure (SMILES) | EC50 (U937 cells)
< 100 nM | C[C@@H](CNC(=O)C(=O)N[C@H]1COc2ccc(C#CCCO)cc2N(C)C1=O)c1ccccc1 [Example 155, N^1-((S)-7-(4-hydroxybut-1-yn-1-yl)-5-methyl-4-oxo-2,3,4,5-tetrahydrobenzo[b][1,4]oxazepin-3-yl)-N^2-((R)-2-phenylpropyl)oxalamide] | < 100 nM
< 100 nM | C[C@H](CNC(=O)C(=O)N[C@H]1COc2ccc(C#CCCO)cc2N(C)C1=O)c1ccccc1 [Example 156, N^1-((S)-7-(4-hydroxybut-1-yn-1-yl)-5-methyl-4-oxo-2,3,4,5-tetrahydrobenzo[b][1,4]oxazepin-3-yl)-N^2-((S)-2-phenylpropyl)oxalamide] | < 100 nM
< 100 nM | C[C@@H](CNC(=O)C(=O)N[C@H]1COc2ccc(C#CC3(O)COC3)cc2N(C)C1=O)c1ccccc1 [Example 158, N^1-((S)-7-((3-hydroxyoxetan-3-yl)ethynyl)-5-methyl-4-oxo-2,3,4,5-tetrahydrobenzo[b][1,4]oxazepin-3-yl)-N^2-((R)-2-phenylpropyl)oxalamide] | < 100 nM

— patent US20250368633A1, “AZEPINE FUSED RING COMPOUND AS RIPK1 INHIBITOR AND USE THEREOF” (ARTIVILA BIOPHARMA, priority 2022, published 2025)
